Source: PMC8942502 (Journal of Enzyme Inhibition and Medicinal Chemistry, 2022)
Where two headings read alike, the source gives them in different places.

Legend:
LSD1 = conditions: Figure 1; cited from earlier work
MAO-A = conditions: Figure 1, cited from earlier work
MAO-B = conditions: Figure 1, cited from earlier work
hMAO-B = target: T1, hMAO-B (Homo sapiens, UniProt P27338); experiment: Anti-MAO assay (Amplex Red, p-tyramine); type: biochemical; conditions: mean ± SD, n = 3
T1 construct: purchased Sigma-Aldrich
T1 sequence (P27338 1-520): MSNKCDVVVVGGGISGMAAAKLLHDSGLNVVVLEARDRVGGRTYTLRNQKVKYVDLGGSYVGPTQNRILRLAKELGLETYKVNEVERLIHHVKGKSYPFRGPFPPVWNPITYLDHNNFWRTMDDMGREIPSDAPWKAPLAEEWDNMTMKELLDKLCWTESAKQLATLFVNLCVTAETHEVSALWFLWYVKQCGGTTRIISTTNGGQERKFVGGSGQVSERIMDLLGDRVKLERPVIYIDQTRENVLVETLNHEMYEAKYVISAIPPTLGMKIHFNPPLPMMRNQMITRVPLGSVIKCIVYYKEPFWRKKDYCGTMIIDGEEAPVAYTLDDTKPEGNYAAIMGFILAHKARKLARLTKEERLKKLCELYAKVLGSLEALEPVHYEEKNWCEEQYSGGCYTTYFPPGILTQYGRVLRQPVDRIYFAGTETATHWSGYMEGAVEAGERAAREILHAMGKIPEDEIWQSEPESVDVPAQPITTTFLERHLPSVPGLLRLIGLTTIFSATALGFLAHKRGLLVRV

hMAO-A = target: T2, hMAO-A (Homo sapiens, UniProt P21397); experiment: Anti-MAO assay (Amplex Red, p-tyramine); type: biochemical; conditions: for MAO Selectivity Index: IC50 MAO-B/IC50 MAO-A; for IC50: mean ± SD, n = 3
T2 construct: purchased Sigma-Aldrich
T2 sequence (P21397 1-527): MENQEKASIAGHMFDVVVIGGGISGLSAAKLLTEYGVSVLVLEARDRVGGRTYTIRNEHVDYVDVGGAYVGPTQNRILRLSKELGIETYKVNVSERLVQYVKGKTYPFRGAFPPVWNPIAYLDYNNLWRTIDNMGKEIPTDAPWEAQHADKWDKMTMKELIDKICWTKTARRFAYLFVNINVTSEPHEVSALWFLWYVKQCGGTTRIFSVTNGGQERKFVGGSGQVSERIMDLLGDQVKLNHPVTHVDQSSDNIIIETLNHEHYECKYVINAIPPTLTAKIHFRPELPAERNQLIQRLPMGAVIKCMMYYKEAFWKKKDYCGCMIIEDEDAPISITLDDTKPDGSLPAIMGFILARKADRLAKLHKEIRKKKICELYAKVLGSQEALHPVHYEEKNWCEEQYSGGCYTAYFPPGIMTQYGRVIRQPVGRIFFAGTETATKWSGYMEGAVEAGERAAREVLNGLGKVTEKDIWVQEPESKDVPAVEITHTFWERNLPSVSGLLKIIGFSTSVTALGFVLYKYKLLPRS

LSD1-CoREST complex [1] = target: T3, LSD1-CoREST complex (Homo sapiens, UniProt O60341); experiment: LSD1-CoREST inhibition assay (Amplex UltraRed/HRP, H3K4 peptide); type: biochemical; conditions: for IC50: mean ± SD from two experiments in duplicate, 10 min preincubation; for fold drop of anti-LSD1 potency compared with phenyl analogue: para compounds vs 1a, meta compound vs 1b
T3 construct: made in house; host or cells: Escherichia coli

U937 cells = experiment: MTT cell viability assay; type: cell-based; conditions: 0.1-50 μM, 48 and 72 h
Description: (§1) The tested compounds have been dissolved in DMSO at […] as stock concentration. All compounds have been tested at 10 μM and 50 μM as final concentrations for WB analysis. All compounds have been used at 0.1 μM, 5 μM, 10 μM, 25 μM, 50 μM as final concentration for proliferation assays. ORY-1001 (Selleck Catalog No. S7795) was used as reference compound at the concentration of 25 μM.
(§2) Cell culture LNCaP and U937 were purchased from ATCC (Milan, Italy). LNCaP were grown in Roswell Park Memorial Institute culture medium (RPMI; EuroClone, Milan, Italy), supplemented with 10% heat-inactivated foetal bovine serum (FBS; Sigma-Aldrich, Schnellendorf, Germany), antimicrobials (100 U/mL penicillin, 100 µg/mL streptomycin, 250 ng/mL amphotericin-B), 2 mM L-glutamine (EuroClone, Milan, Italy), and 1% essential amino acids solution (MEM; EuroClone, Milan, Italy). U937 were cultured in Dulbecco’s Modified Eagle Medium (DMEM; EuroClone, Milan, Italy), supplemented with 10% heat-inactivated foetal bovine serum (FBS; Sigma-Aldrich, Schnellendorf, Germany), antimicrobials (100 U/mL penicillin, 100 µg/mL streptomycin, 250 ng/mL amphotericin-B), 2 mM L-glutamine (EuroClone). Cells have grown in standard incubator conditions at 37 °C and 5% CO2.
(§3) Cell viability was determined on LNCaP and U937 cell lines using Thiazolyl Blue Tetrazolium Bromide [3-(4,5-dimethylthiazol-2-yl)-2,5-diphenyltetrazolium bromide] (MTT; Sigma-Aldrich, Schnellendorf, Germany) assay, following manufacturer’s instructions. A total of 5 × 10^3 cells/well were plated in a 96-well plate and treated, in duplicates, and repeated for three times, with the tested compounds at different concentrations 0.1 μM, 5 μM, 10 μM, 25 μM, 50 μM as final concentrations for 48 h, and 72 h. […] Absorbance was read at a wavelength of 570 nm with a TECAN M − 200 reader (Tecan, Männedorf, Switzerland).

LNCaP cells [2] = experiment: MTT cell viability assay; type: cell-based; conditions: Homo sapiens
Description: as §1, §2, §3

LSD1-CoREST complex [3] = experiment: LSD1-CoREST inhibition assay (Amplex UltraRed/HRP, H3K4 peptide); type: biochemical, human; conditions: for LSD1 selectivity vs MAO-A: IC50 MAO-A/IC50 LSD1; for LSD1 selectivity vs MAO-B: IC50 MAO-B/IC50 LSD1
LNCaP cells [4] = tested on: LNCaP cells; set-up: method as in PMID 30693539; conditions: 72 h; cited from earlier work
NB4 APL cells = tested on: NB4 APL cells; set-up: method as in PMID 32003940; conditions: cited from earlier work
[5] = tested on: MV4-11 acute myeloid leukaemia (AML) cells; set-up: method as in PMID 32003940; conditions: cited from earlier work

| IC50 (hMAO-B) | MAO Selectivity Index (hMAO-A) | IC50 (hMAO-A) | IC50 (LSD1-CoREST complex [1]) | IC50 (LNCaP cells [2]; 48 h) | IC50 (LNCaP cells [2]; 72 h) | melting point | Structure (SMILES) | effect on cell viability in U937 cells (U937 cells) | LSD1 selectivity vs MAO-A (LSD1-CoREST complex [3]) | LSD1 selectivity vs MAO-B (LSD1-CoREST complex [3]) | further results |
| --- | --- | --- | --- | --- | --- | --- | --- | --- | --- | --- | --- |
|  |  |  |  |  |  |  | NC1CC1c1ccc(NC(=O)c2ccccc2)cc1 (centres unmarked) [MC2584, reference compound] |  |  |  | IC50 (LSD1): 19 nM; IC50 (MAO-A): 31 nM; IC50 (MAO-B): 8980 nM |
| 67 ± 6 nM | 1.6 | 42 ± 4 nM | 341 ± 106 nM | 26500 ± 4800 nM | 17900 ± 1600 nM |  | Cl.NC1CC1c1ccc(NC(=O)c2ccc(-c3ccsc3)cc2)cc1 (centres unmarked) [5a, N-(4-(2-Aminocyclopropyl)phenyl)-4-(thiophen-3-yl)benzamide hydrochloride] | the most potent |  |  |  |
| 10400 ± 300 nM | 66 | 159 ± 14 nM | 572 ± 157 nM |  |  | > 250 °C | Cl.NC1CC1c1ccc(NC(=O)c2cccc(-c3ccncc3)c2)cc1 (centres unmarked) [6b, N-(4-(2-Aminocyclopropyl)phenyl)-3-(pyridin-4-yl)benzamide hydrochloride] |  | 0.3 | 18.2 | fold drop of anti-LSD1 potency compared with phenyl analogue (LSD1-CoREST complex [1]): 4 fold |
| 888 ± 77 nM | 9.5 | 93 ± 8 nM | 110 ± 44 nM | 27600 ± 9800 nM | 18500 ± 2700 nM | 208 to 210 °C | Cl.NC1CC1c1ccc(NC(=O)c2cccc(-c3ccco3)c2)cc1 (centres unmarked) [2b, N-(4-(2-Aminocyclopropyl)phenyl)-3-(furan-2-yl)benzamide hydrochloride] | almost ineffective | 0.8 | 8.1 |  |
|  |  |  |  |  |  |  | C#CCN(C)CCCOc1ccc(Cl)cc1Cl [clorgyline] |  |  |  | IC50 (LNCaP cells [4]): 63700 ± 8200 nM |
| 519 ± 36 nM | 0.5 | 1120 ± 97 nM | 221 ± 23 nM | 12400 ± 6100 nM | 13400 ± 3700 nM | 235 to 238 °C | Cl.NC1CC1c1ccc(NC(=O)c2cccc(-c3ccoc3)c2)cc1 (centres unmarked) [3b, N-(4-(2-Aminocyclopropyl)phenyl)-3-(furan-3-yl)benzamide hydrochloride] | the most potent | 5.1 | 2.3 |  |
| 73 ± 6 nM | 1.7 | 43 ± 4 nM | 2000 ± 528 nM |  |  |  | Cl.NC1CC1c1ccc(NC(=O)c2ccc(-c3ccco3)cc2)cc1 (centres unmarked) [2a, N-(4-(2-Aminocyclopropyl)phenyl)-4-(furan-2-yl)benzamide hydrochloride] |  |  |  |  |
| 358 ± 31 nM | 5.2 | 69 ± 6 nM | 13900 ± 3060 nM |  |  | > 250 °C | Cl.NC1CC1c1ccc(NC(=O)c2ccc(-c3ccncc3)cc2)cc1 (centres unmarked) [6a, N-(4-(2-Aminocyclopropyl)phenyl)-4-(pyridin-4-yl)benzamide hydrochloride] |  |  |  | fold drop of anti-LSD1 potency compared with phenyl analogue (LSD1-CoREST complex [1]): 73 fold |
| 32 ± 3 nM | 1.3 | 25 ± 2 nM | 1080 ± 359 nM |  |  | > 250 °C | Cl.NC1CC1c1ccc(NC(=O)c2ccc(-c3cccs3)cc2)cc1 (centres unmarked) [4a, N-(4-(2-Aminocyclopropyl)phenyl)-4-(thiophen-2-yl)benzamide hydrochloride] |  |  |  |  |
| 93 ± 8 nM | 0.6 | 160 ± 14 nM | 2340 ± 225 nM |  |  |  | Cl.NC1CC1c1ccc(NC(=O)c2ccc(-c3ccoc3)cc2)cc1 (centres unmarked) [3a, N-(4-(2-Aminocyclopropyl)phenyl)-4-(furan-3-yl)benzamide hydrochloride] |  |  |  |  |
| 327 ± 28 nM | 11.7 | 28 ± 2 nM | 149 ± 43 nM | 22800 ± 5100 nM | 9900 ± 1700 nM | > 250 °C | Cl.NC1CC1c1ccc(NC(=O)c2cccc(-c3ccccc3)c2)cc1 (centres unmarked) [1b, N-(4-(2-Aminocyclopropyl)phenyl)-[1,1′-biphenyl]-3-carboxamide hydrochloride] | the most potent | 0.2 | 2.2 | fold higher potency against LSD1 of meta regioisomer than para counterpart (LSD1-CoREST complex [1]; meta vs para): 1.3 fold |
| 366 ± 32 nM | 15.3 | 24 ± 2 nM | 15 ± 3 nM | 25700 ± 8300 nM | 15200 ± 3500 nM | 245 to 248 °C | Cl.NC1CC1c1ccc(NC(=O)c2cccc(-c3cccs3)c2)cc1 (centres unmarked) [4b, N-(4-(2-Aminocyclopropyl)phenyl)-3-(thiophen-2-yl)benzamide hydrochloride] | almost ineffective | 1.6 | 24.4 |  |
| 820 ± 71 nM |  | 28 ± 2 nM | 5 ± 0.8 nM | 32100 ± 7800 nM | 17200 ± 3500 nM | > 250 °C | Cl.NC1CC1c1ccc(NC(=O)c2cccc(-c3ccsc3)c2)cc1 (centres unmarked) [5b, N-(4-(2-Aminocyclopropyl)phenyl)-3-(thiophen-3-yl)benzamide hydrochloride] | the most potent |  |  |  |

| Structure (SMILES) | IC50 (hMAO-B) | MAO Selectivity Index (hMAO-A) | IC50 (hMAO-A) | IC50 (LSD1-CoREST complex [1]) | IC50 (LNCaP cells [2]; 48 h) | IC50 (LNCaP cells [2]; 72 h) | melting point | effect on cell viability in U937 cells (U937 cells) | LSD1 selectivity vs MAO-A (LSD1-CoREST complex [3]) | LSD1 selectivity vs MAO-B (LSD1-CoREST complex [3]) | further results |
| --- | --- | --- | --- | --- | --- | --- | --- | --- | --- | --- | --- |
| NC1CC1c1ccc(NC(=O)c2ccc(-c3ccccc3)cc2)cc1 (centres unmarked) [1a] |  |  |  | 190 ± 30 nM | 34100 ± 13200 nM | 25400 ± 3200 nM |  | almost ineffective |  |  | cell growth arrest IC50 (NB4 APL cells): low, single-digit micromolar levels; IC50 (LSD1): 51 nM; MAO-A inhibition (MAO-A; @ 100 μM): 2%; cell growth arrest IC50 [5]: low, single-digit micromolar levels; MAO-B inhibition (MAO-B; @ 100 μM): 8% |
